Type in all cases: in vivo, mouse
Assay [1] has as its system IL-4. Put plainly: Measurement of IL-4 expression level by ELISA. To be noted: NC/Nga mice, injection or skin application for 4 weeks, serum and splenocyte, vs negative control. How it is done:
(§1) Serum was prepared from blood of main artery. Lymphocytes extracted from spleen were cultured. Briefly, extracted spleen was homogenized, filtered through mesh and single cells was isolated. Red blood cells were lysed in RBC lysis buffer and the supernatant was removed by centrifugation. 1×10^6 cells were cultured in 24-well plate containing RPMI media (1 ml). The experiments were performed in media containing cells cultured for 3 days.
(§2) NC/Nga mice in which atopic dermatitis had been induced were treated with hirsutenone through an injection or skin application for 4 weeks. Blood and spleen were collected from mice and interleukin (IL)-4, IL-5, IL-10 and IL-13 expression level in serum and splenocyte were measured using ELISA. IL-4, IL-5 and IL-13 expression detected in groups of hirsutenone being injected or skin applied was much lower than those of negative control (FIG. 9a, FIG. 9b and FIG. 9c).
On the technique in general: ELISA stands for enzyme-linked immunosorbent assay.

Assay [2] has as its system iNOS. Put plainly: Measurement of iNOS expression level using western blotting. Conditions: NC/Nga mice, injection or skin application for 4 weeks, epidermal cells. How it is done: (§3) Skin tissue containing epidermal cells was lysed and centrifuged using a centrifuge. The supernatant was electrophoresized on 15% SDS-PAGE (sodium dodecyl sulfate polyacrylamide gel electrophoresis). For analysis of COX-2 and iNOS, proteins separated on gel electrophoresis were transferred into a nitrocellulose membrane and sequentially incubated with a primary antibody (1:1000 in BSA, rabbit polyclonal anti-COX-2 antibody, rabbit polyclonal iNOS antibody; Chemicon, Calif., USA) and a secondary antibody (1:2000 in BSA, anti-goat IgG, anti-rabbit IgG; Chemicon, Calif., USA).
(§4) NC/Nga mice in which atopic dermatitis had been induced were treated with hirsutenone through an injection or skin application for 4 weeks and mice epidermal cells were collected. To investigate whether hirsutenone has a regulatory activity on immune responses, the expression levels of COX-2 and iNOS were detected using western blotting.
A general note: Immunoblotting shows a protein as a band on a membrane.

Assay [3] relates to mice in which atopic dermatitis had been induced. Put plainly: Naked-eye observation of atopic dermatitis in animal model. The source says:
To examine treatment efficacy of hirsutenone on atopic dermatitis, the present inventors utilized an experimental animal model in which atopic dermatitis was induced by attachment of mite patch to the skin. Briefly, the patch containing a mite-derived ingredient as a human atopic dermatitis-inducing agent was applied to 5-old-week mice. The hairs of their back were partially removed and mite patch was attached. At 2-week post-application, skin damage equivalent to atopic dermatitis was observed. Mite patch was detached at 18 weeks.
In addition to NC/Nga mouse, BABL/c mouse was used as an animal model.
To examine treatment efficacy of hirsutenone on atopic dermatitis, mice in which atopic dermatitis had been induced were treated with hirsutenone through an injection or skin application for 4 weeks. Then, external skin morphology was estimated by naked-eye observation so as to determine whether a symptom of atopic dermatitis was relieved. Each group injected or applied with hirsutenone was compared to a negative control group into which hirsutenone was not administered, resulting in the improvement of a symptom of atopic dermatitis. […] FIG. 5d represents a positive control treated with dexamethasone. […] FIG. 5g represents the result of administration of plancol as positive control.
FIG. 6d represents a positive control treated with dexamethasone. […] FIG. 6g represents the result of administration of plancol as positive control.

Assay [4] relates to IL-5. Put plainly: Measurement of IL-5 expression level by ELISA. Conditions: NC/Nga mice, injection or skin application for 4 weeks, serum and splenocyte, vs negative control. The procedure: as §1, §2
Assay [5] deals with iNOS. Put plainly: Measurement of iNOS expression using real-time PCR. To be noted: NC/Nga mice, injection or skin application for 4 weeks, epidermal cells. How it is done: (§5) The primers used in Real-time PCR are as follows.
(§6) Total RNA was extracted according to the following steps. Tissue was treated with 1 ml TRIZol reagent and mixed with 200 μl chloroform. After centrifugation at 12,000 rpm for 15 min at 4° C., the supernatant was transferred into a new tube and mixed with ½ vol. of isopropanol. The mixture was again centrifuged at 12,000 rpm for 15 min at 4° C. The supernatant was discarded and total RNA was dissolved in DEPC-water.
(§7) cDNA was prepared according to the following steps. The isolated total RNA was dissolved in 30 μl DEPC-DW and reverse transcription using 3 μg of total RNA as a template was performed in a reaction mixture (20 μl) containing 1 μl of reverse transcriptase, 2 μl of 10× buffer, 2 μl of 10 mM dNTP (dNTP mix), 1 μl of oligo dT primer, 0.5 μl of RNase inhibitor and 4 μl of 25 mM MgCl2.
(§8) Each 2 μl of cDNA prepared was amplified using PCR. PCR reaction was performed by 45 cycles of 1 min at 59° C. and 1 min at 94° C. Finally, the mixtures were incubated at 72° C. for 1 min for extension.
(§9) NC/Nga mice in which atopic dermatitis had been induced were treated with hirsutenone through an injection or skin application for 4 weeks and then mice epidermal cells were collected. To investigate whether hirsutenone has a regulatory activity on immune responses, the expression levels of COX-2 and iNOS were detected using real-time PCR. […]
(In general: Quantitative PCR measures a nucleic acid by following its amplification.)

Assay [6] relates to IL-13. Put plainly: Measurement of IL-13 expression level by ELISA. To be noted: NC/Nga mice, injection or skin application for 4 weeks, serum and splenocyte, vs negative control. How it is done:
as §1, §2

Assay [7] concerns IgE. Put plainly: Measurement of IgE level by ELISA. To be noted: NC/Nga mice, injection or skin application for 4 weeks, vs negative control. The procedure: as §1
NC/Nga mice in which atopic dermatitis had been induced were treated with hirsutenone through an injection or skin application for 4 weeks. Blood was collected from mice and IgE expression level was measured using ELISA.

Assay [8] has as its system eosinophil. Put plainly: Eosinophil count in blood. To be noted: NC/Nga mice, injection or skin application for 4 weeks, after vs before administration. The procedure:
Mouse blood was collected into capillary tube and 30 μl of mouse whole blood was diluted 6-fold by addition of 150 μl saline. Eosinophils were counted using a Sysmex XE-2100 hematology analyzer. Slide glass smeared with peripheral blood was prepared and stained with Wright-Giemsa. Eosinophil count was carried out by differentially counting 200 leukocytes.
NC/Nga mice in which atopic dermatitis had been induced were treated with hirsutenone through an injection or skin application for 4 weeks. Blood was collected from mice before and after administration or application of hirsutenone, and then eosinophil count was measured.

Assay [9] deals with COX-2. Put plainly: Measurement of COX-2 expression level using western blotting. Conditions: NC/Nga mice, injection or skin application for 4 weeks, epidermal cells. The procedure: as §3, §4
The subject of assay [10] is COX-2. Put plainly: Measurement of COX-2 expression using real-time PCR. To be noted: NC/Nga mice, injection or skin application for 4 weeks, epidermal cells. The procedure: as §5, §6, §7, §8, §9

With `O=C(/C=C/CCc1ccc(O)c(O)c1)CCc1ccc(O)c(O)c1` [hirsutenone], the IL-4 expression level entry in [1] is on record as “much lower”. In addition, the “iNOS expression level (western blotting)” value in assay [2] is “reduced”. The “symptom of atopic dermatitis (naked-eye observation)” value is “much more relieved” in assay [3] (BABL/c mice, 0.1% hirsutenone by injection, vs PBS negative control); “much more relieved” in assay [3] (BABL/c mice, 1% hirsutenone by injection, vs PBS negative control); “much more alleviated” in assay [3] (BABL/c mice, 1% hirsutenone ointment applied to skin, vs composition without active ingredient); “much more improved” in assay [3] (NC/Nga mice, 0.1% hirsutenone by injection, 4 weeks, vs PBS negative control); “much more improved” in assay [3] (NC/Nga mice, 1% hirsutenone by injection, 4 weeks, vs PBS negative control); “much more remarkably improved” in assay [3] (NC/Nga mice, 1% hirsutenone ointment applied to skin, 4 weeks, vs composition without active ingredient). Further, the IL-5 expression level result in assay [4] is “much lower”. Also, the “iNOS expression level (real-time PCR)” value in assay [5] is recorded as “significantly decreased”. Besides, the IL-13 expression level result in [6] is recorded as “much lower”. In addition, the “IgE expression level in blood” value in [7] is listed as “remarkably lower”. Further, the “number of eosinophil in blood” value in assay [8] was “more severely reduced”. In [9], the “COX-2 expression level (western blotting)” value was “reduced”. The “COX-2 expression level (real-time PCR)” value in assay [10] is given as “significantly decreased”.

The record behind these values is patent US8012486B2, “Composition for treating atopic dermatitis comprising hirsutenone as an active ingredient” (Chung-Ang University Industry Academic Cooperation …, priority 2009, dated 2011).
